These results are taken from patent US20060210480A1, “Treatment of reduction of dysphagia” (priority 2005, published 2006).

The subject of assay [1] is swallowing response. Kind of assay: Ten-minute infusion of taste stimuli onto the taste receptors of the tongue; pharyngeal MEP (Example 2). The format is in vivo, human. To be noted: volunteers; ten minute infusion to tongue taste receptors; taken over a 60 minute period from administration. An excerpt:
Confirmation of the suitability of […] tasting substances such as the alkaloid quinine to stimulate the swallowing response and thereby aid treatment or reduction of dysphagia was obtained from a second study measuring swallowing reflexes of volunteers receiving neutral, pleasant or aversive taste stimuli. Volunteers receive a ten minute infusion of neutral (water), pleasant (glucose) or aversive (quinine) taste stimuli administered such that they stimulated the taste receptors of the tongue.

Assay [2] has as its system human cortical swallowing pathways. Kind of assay: Ten-minute liquid swallowing task with taste solutions; TMS-evoked cortico-pharyngeal motor responses (Example 1). The format is in vivo. To be noted: 8 healthy adult volunteers; 0.5 mM quinine hydrochloride swallowing task; immediately and throughout 60 minutes post-intervention; p<0.01. As for the experimental part:
An assessment was made as to the effects of different taste stimuli on human cortical swallowing pathways. The assessment was made upon 8 healthy adult volunteers (seven of which were male, the minimum age of the volunteers being 29 years).
Each volunteer performed a ten-minute, liquid swallowing task using three (previously titrated) different taste solutions. The three solutions utilised were sterile water (neutral taste), 10% glucose (sweet/pleasant taste), and 0.5 mM quinine hydrochloride (bitter/aversive taste). Solutions were randomised to separate studies at least 24 hours apart.
Transcranial magnetic stimulation was performed over the swallowing motor cortex, before and up to one hour after each swallow task in accordance with established protocols. Briefly, Single pulse (monophasic) transcranial stimulation (sTMS) of the cerebral cortex was achieved using a magnetic stimulator (a Magstim 200, manufactured by MAGSTIM Company Limited, Whitland, Wales) connected to a 70 mm outer diameter figure-of-8 coil (maximal output of 2.2 Tesla (T)), held in an A-P (Anterior-Posterior) direction, at an angle of 45° tangential to the scalp. […]
Cortico-pharyngeal motor responses were recorded from a swallowed intra-luminal catheter as a measure of cortical excitability. […]

The subject of assay [3] is swallowing response. Description: Ten-minute infusion of taste stimuli directly into the stomach; pharyngeal MEP (Example 3). The assay is classed as in vivo, human. As to conditions: volunteers; ten minute infusion administered directly to the stomach. An excerpt: The ability of substances such as the […] tasting alkaloid quinine to stimulate the swallowing response when administered into the portion of the upper digestive tract below the mouth was in a third study measuring swallowing reflexes of volunteers receiving neutral, pleasant or aversive taste stimuli. Volunteers receive a ten minute infusion of neutral (water), pleasant (glucose) or aversive (quinine) taste stimuli administered directly into the volunteer's stomach.

For `C=C[C@H]1C[N@@]2CC[C@H]1C[C@H]2[C@H](O)c1ccnc2ccc(OC)cc12` [quinine], the “increase in the amplitude of MEP compared with neutral tasting water or pleasant tasting glucose” value in assay [1] is on record as “greater increase”. Also, the “maximum percentage change from base line in pharyngeal motor evoked potential (MEP) amplitude” value in assay [2] is given as 48±11%. Also, the “increase in the swallowing response (measured by MEP)” value in assay [3] was 39%.
